Test results from patent US11739078B2, “Methods of inhibiting kinases” (INSILICO MEDICINE IP LIMITED, priority 2019, dated 2023).
Like-named read-outs stand apart in the source and are kept apart here.

What was measured:
[1] = molecular target: MAP4K4 (h) (Homo sapiens (Human), UniProt O95819); test: MAP4K4 in vitro kinase assay (radiometric); assay type: biochemical; settings: read-out: MAP4K4_IC50
Method: (§1) (specific activity and concentration as required). The reaction is initiated by the addition of the Mg/ATP mix. After incubation for 40 minutes at room temperature, the reaction is stopped by the addition of phosphoric acid to a concentration of 0.5%.

[2] = molecular target: TNIK (Homo sapiens (Human), UniProt Q9UKE5); test: TNIK enzymatic assay (radiometric kinase inhibition); assay type: biochemical
TNIK, sequence (Q9UKE5 whole entry): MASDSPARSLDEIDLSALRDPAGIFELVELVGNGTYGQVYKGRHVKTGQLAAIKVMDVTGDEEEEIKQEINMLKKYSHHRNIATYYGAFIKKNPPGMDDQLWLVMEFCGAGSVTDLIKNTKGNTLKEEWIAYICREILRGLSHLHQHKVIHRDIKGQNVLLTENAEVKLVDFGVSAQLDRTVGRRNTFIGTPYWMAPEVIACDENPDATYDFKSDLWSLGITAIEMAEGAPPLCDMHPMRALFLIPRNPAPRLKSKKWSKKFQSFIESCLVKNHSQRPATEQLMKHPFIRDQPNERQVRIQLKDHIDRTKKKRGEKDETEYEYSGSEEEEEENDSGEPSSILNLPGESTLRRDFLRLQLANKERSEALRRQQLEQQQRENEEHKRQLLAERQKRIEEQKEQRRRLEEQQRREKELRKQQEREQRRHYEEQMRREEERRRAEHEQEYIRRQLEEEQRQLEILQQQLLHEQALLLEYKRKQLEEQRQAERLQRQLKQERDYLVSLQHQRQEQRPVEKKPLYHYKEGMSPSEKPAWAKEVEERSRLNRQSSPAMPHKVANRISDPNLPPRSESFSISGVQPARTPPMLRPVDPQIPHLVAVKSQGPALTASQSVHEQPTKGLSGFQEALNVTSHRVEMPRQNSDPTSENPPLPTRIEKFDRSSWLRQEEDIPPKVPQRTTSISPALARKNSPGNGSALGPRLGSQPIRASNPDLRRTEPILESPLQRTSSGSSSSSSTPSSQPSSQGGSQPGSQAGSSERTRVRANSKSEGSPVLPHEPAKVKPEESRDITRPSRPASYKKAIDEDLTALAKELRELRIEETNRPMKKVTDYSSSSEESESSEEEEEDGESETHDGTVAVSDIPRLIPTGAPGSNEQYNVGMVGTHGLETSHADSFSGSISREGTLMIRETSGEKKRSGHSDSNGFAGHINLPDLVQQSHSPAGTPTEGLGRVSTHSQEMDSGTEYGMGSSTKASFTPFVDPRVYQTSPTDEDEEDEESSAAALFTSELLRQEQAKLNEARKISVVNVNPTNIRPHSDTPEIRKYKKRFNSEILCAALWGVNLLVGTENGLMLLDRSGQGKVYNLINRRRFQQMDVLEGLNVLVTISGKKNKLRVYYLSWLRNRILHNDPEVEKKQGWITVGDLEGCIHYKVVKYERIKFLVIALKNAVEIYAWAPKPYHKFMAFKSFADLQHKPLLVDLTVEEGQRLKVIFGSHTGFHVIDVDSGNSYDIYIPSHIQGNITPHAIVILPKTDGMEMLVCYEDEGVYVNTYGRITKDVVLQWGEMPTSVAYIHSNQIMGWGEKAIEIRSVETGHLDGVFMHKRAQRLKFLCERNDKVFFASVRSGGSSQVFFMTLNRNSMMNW
Method: as §1, with “The compounds were studied for function as TNIK inhibitors to generate the data of Table 1. […] (specific” for “(specific”

[3] = TNIK enzymatic assay, Table 1, read-out: IC50

MAP4K4 (h), sequence (O95819 whole entry): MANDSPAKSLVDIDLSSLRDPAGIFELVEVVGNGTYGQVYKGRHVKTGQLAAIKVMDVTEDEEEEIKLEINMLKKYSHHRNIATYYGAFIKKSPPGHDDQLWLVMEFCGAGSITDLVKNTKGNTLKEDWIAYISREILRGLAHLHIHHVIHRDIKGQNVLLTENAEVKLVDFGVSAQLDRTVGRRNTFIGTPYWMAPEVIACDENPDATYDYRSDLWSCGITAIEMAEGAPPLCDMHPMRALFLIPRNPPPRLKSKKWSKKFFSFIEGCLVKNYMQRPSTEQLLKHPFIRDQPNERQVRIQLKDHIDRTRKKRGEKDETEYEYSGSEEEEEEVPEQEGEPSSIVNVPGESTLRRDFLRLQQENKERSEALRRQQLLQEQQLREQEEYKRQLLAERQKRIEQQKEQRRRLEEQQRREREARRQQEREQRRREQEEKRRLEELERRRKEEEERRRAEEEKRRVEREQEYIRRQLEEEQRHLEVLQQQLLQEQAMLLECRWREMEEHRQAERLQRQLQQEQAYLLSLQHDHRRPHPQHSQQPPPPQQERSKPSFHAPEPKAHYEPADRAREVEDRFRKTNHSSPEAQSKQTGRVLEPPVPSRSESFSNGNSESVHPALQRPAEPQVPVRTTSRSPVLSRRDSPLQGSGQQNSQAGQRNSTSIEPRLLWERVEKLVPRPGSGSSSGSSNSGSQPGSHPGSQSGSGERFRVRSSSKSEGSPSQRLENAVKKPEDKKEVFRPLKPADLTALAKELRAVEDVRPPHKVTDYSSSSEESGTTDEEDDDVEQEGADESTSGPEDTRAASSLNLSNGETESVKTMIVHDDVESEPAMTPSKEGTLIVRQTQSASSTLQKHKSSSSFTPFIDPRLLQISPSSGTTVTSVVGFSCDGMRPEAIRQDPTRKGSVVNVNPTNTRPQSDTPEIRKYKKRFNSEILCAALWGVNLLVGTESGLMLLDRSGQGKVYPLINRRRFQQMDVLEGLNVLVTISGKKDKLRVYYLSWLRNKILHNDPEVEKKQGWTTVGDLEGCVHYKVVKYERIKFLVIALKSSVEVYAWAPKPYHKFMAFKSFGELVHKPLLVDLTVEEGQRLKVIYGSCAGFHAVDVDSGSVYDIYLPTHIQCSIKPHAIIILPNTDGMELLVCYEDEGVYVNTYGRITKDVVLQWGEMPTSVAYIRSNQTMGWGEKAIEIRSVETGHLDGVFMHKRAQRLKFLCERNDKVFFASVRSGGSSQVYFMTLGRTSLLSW

SMILES | IC50 [1] | IC50 [2, 3] | IC50 ([2]; read-out: TNIK_IC50)
CCc1ccc(NC(=O)c2ccc(-c3c(-c4ccc(F)cc4)ncn3C3CCCC3)o2)cc1 [Compound 23, 5-(1-cyclopentyl-4-(4-fluorophenyl)-1H-imidazol-5-yl)-N-(4-ethylphenyl)furan-2-carboxamide] | 102 nM | 55 nM | 55 nM
COc1ccc(NC(=O)c2ccc(-c3c(-c4ccc(F)cc4)ncn3C3CCCC3)o2)cc1Cl [Compound 45, N-(3-chloro-4-methoxyphenyl)-5-(1-cyclopentyl-4-(4-fluorophenyl)-1H-imidazol-5-yl)furan-2-carboxamide] | 165 nM | 165 nM | 165 nM
COc1ccc(NC(=O)c2ccc(-c3c(-c4ccc(F)cc4)ncn3C3CCCCC3)o2)cc1 [Compound 54, 5-(1-cyclohexyl-4-(4-fluorophenyl)-1H-imidazol-5-yl)-N-(4-methoxyphenyl)furan-2-carboxamide] | 107 nM | 60 nM | 60 nM
Cc1cccc(NC(=O)c2ccc(-c3c(-c4ccc(F)cc4)ncn3C3CCCC3)o2)c1 [Compound 48, 5-(1-cyclopentyl-4-(4-fluorophenyl)-1H-imidazol-5-yl)-N-(m-tolyl)furan-2-carboxamide] | 163 nM | 40 nM | 40 nM
CC(=O)Nc1ccc(NC(=O)c2ccc(-c3c(-c4ccc(F)cc4)ncn3C3CCCC3)o2)cc1 [Compound 46, N-(4-acetamidophenyl)-5-(1-cyclopentyl-4-(4-fluorophenyl)-1H-imidazol-5-yl)furan-2-carboxamide] | 30.9 nM | 24 nM | 24 nM
COc1cc(NC(=O)c2ccc(-c3c(-c4ccc(C)cc4)ncn3C3CCCCC3)o2)cc(OC)c1 [Compound 6, 5-(1-cyclohexyl-4-(p-tolyl)-1H-imidazol-5-yl)-N-(3,5-dimethoxyphenyl)furan-2-carboxamide] | > 1000 nM | 9730 nM | 9730 nM
O=C(Nc1ccc(Br)cc1)c1ccc(-c2c(-c3ccc(F)cc3)ncn2C2CCCC2)o1 [Compound 49, N-(4-bromophenyl)-5-(1-cyclopentyl-4-(4-fluorophenyl)-1H-imidazol-5-yl)furan-2-carboxamide] | 436 nM | 152 nM | 152 nM
Cc1ccc(C)c(NC(=O)c2ccc(-c3c(-c4ccc(F)cc4)ncn3C3CCCC3)o2)c1 [Compound 31, 5-(1-cyclopentyl-4-(4-fluorophenyl)-1H-imidazol-5-yl)-N-(2,5-dimethylphenyl)furan-2-carboxamide] | 457 nM | 135 nM | 135 nM
CCc1cccc(C)c1NC(=O)c1ccc(-c2c(-c3ccc(F)cc3)ncn2C2CCCC2)o1 [Compound 37, 5-(1-cyclopentyl-4-(4-fluorophenyl)-1H-imidazol-5-yl)-N-(2-ethyl-6-methylphenyl)furan-2-carboxamide] | > 1000 nM | 900 nM | 900 nM
CC(=O)c1ccc(NC(=O)c2ccc(-c3c(-c4ccc(F)cc4)ncn3C3CCCC3)o2)cc1 [Compound 9, N-(4-acetylphenyl)-5-(1-cyclopentyl-4-(4-fluorophenyl)-1H-imidazol-5-yl)furan-2-carboxamide] | 36.8 nM | 11 nM | 11 nM
Cc1cc(C)c(NC(=O)c2ccc(-c3c(-c4ccc(F)cc4)ncn3C3CCCC3)o2)c(C)c1 [Compound 34, 5-(1-cyclopentyl-4-(4-fluorophenyl)-1H-imidazol-5-yl)-N-mesitylfuran-2-carboxamide] | 240 nM | 319 nM | 319 nM
O=C(Nc1ccccc1F)c1ccc(-c2c(-c3ccc(F)cc3)ncn2C2CCCCC2)o1 [Compound 62, 5-(1-cyclohexyl-4-(4-fluorophenyl)-1H-imidazol-5-yl)-N-(2-fluorophenyl)furan-2-carboxamide] | 46.9 nM | 25 nM | 25 nM
O=C(Nc1ccccc1Cl)c1ccc(-c2c(-c3ccc(F)cc3)ncn2C2CCCCC2)o1 [Compound 55, N-(2-chlorophenyl)-5-(1-cyclohexyl-4-(4-fluorophenyl)-1H-imidazol-5-yl)furan-2-carboxamide] | 43.4 nM | 24 nM | 24 nM
O=C(Nc1ccc(OC(F)(F)F)cc1)c1ccc(-c2c(-c3ccc(F)cc3)ncn2C2CCCC2)o1 [Compound 44, 5-(1-cyclopentyl-4-(4-fluorophenyl)-1H-imidazol-5-yl)-N-(4-(trifluoromethoxy)phenyl)furan-2-carboxamide] | 610 nM | 523 nM | 523 nM
COc1ccc(OC)c(NC(=O)c2ccc(-c3c(-c4ccc(F)cc4)ncn3C3CCCC3)o2)c1 [Compound 2, 5-(1-cyclopentyl-4-(4-fluorophenyl)-1H-imidazol-5-yl)-N-(2,5-dimethoxyphenyl)furan-2-carboxamide] | 10.2 nM | < 10 nM | 3.07 nM
O=C(Nc1ccccc1C(F)(F)F)c1ccc(-c2c(-c3ccc(F)cc3)ncn2C2CCCC2)o1 [Compound 10, 5-(1-cyclopentyl-4-(4-fluorophenyl)-1H-imidazol-5-yl)-N-(2-(trifluoromethyl)phenyl)furan-2-carboxamide] | 30.4 nM | 10 nM | < 10 nM
Cc1ccccc1NC(=O)c1ccc(-c2c(-c3ccc(F)cc3)ncn2C2CCCC2)o1 [Compound 29, 5-(1-cyclopentyl-4-(4-fluorophenyl)-1H-imidazol-5-yl)-N-(o-tolyl)furan-2-carboxamide] | 115 nM | 62 nM | 62 nM

Continued, values first:

IC50 [1] | IC50 [2, 3] | IC50 ([2]; read-out: TNIK_IC50) | SMILES
> 1000 nM | 936 nM | 936 nM | Cc1cc(C)c(NC(=O)c2ccc(-c3c(-c4ccc(F)cc4)ncn3C3CCCCC3)o2)c(C)c1 [Compound 70, 5-(1-cyclohexyl-4-(4-fluorophenyl)-1H-imidazol-5-yl)-N-mesitylfuran-2-carboxamide]
161 nM |  | 83.2 nM | O=C(Nc1ccncc1F)c1ccc(-c2c(-c3ccc(F)cc3)ncn2CC2CCOC2)o1 (stereo not shown) [Compound A-36, 5-(4-(4-fluorophenyl)-1-((tetrahydrofuran-3-yl)methyl)-1H-imidazol-5-yl)-N-(3-fluoropyridin-4-yl)furan-2-carboxamide]
625 nM | 151 nM | 151 nM | CC(=O)c1cccc(NC(=O)c2ccc(-c3c(-c4ccc(F)cc4)ncn3C3CCCCC3)o2)c1 [Compound 71, N-(3-acetylphenyl)-5-(1-cyclohexyl-4-(4-fluorophenyl)-1H-imidazol-5-yl)furan-2-carboxamide]
231 nM |  | 124 nM | O=C(Nc1cc[nH]c(=O)c1)c1ccc(-c2c(-c3ccc(F)cc3)ncn2C2COCC2(F)F)o1 (stereo not shown) [Compound A-42, 5-(1-(4,4-difluorotetrahydrofuran-3-yl)-4-(4-fluorophenyl)-1H-imidazol-5-yl)-N-(2-oxo-1,2-dihydropyridin-4-yl)furan-2-carboxamide]
> 1000 nM | 531 nM | 531 nM | Cc1ccc(NC(=O)c2ccc(-c3c(-c4ccc(F)cc4)ncn3C3CCCCC3)o2)cc1Cl [Compound 66, N-(3-chloro-4-methylphenyl)-5-(1-cyclohexyl-4-(4-fluorophenyl)-1H-imidazol-5-yl)furan-2-carboxamide]
638 nM | 238 nM | 238 nM | CSc1cccc(NC(=O)c2ccc(-c3c(-c4ccc(F)cc4)ncn3C3CCCCC3)o2)c1 [Compound 72, 5-(1-cyclohexyl-4-(4-fluorophenyl)-1H-imidazol-5-yl)-N-(3-(methylthio)phenyl)furan-2-carboxamide]
194 nM |  | 49.9 nM | Cc1cc(NC(=O)c2ccc(-c3c(-c4ccc(F)cc4)ncn3C3COC3)o2)c(F)cn1 [Compound A-48, N-(5-fluoro-2-methylpyridin-4-yl)-5-(4-(4-fluorophenyl)-1-(oxetan-3-yl)-1H-imidazol-5-yl)furan-2-carboxamide]
247 nM | 77 nM | 77 nM | Cc1ccc(NC(=O)c2ccc(-c3c(-c4ccc(F)cc4)ncn3C3CCCCC3)o2)c(C)c1 [Compound 67, 5-(1-cyclohexyl-4-(4-fluorophenyl)-1H-imidazol-5-yl)-N-(2,4-dimethylphenyl)furan-2-carboxamide]
71.7 nM | 19 nM | 19 nM | Cc1ccc(NC(=O)c2ccc(-c3c(-c4ccc(F)cc4)ncn3C3CCCCC3)o2)c(Cl)c1 [Compound 68, N-(2-chloro-4-methylphenyl)-5-(1-cyclohexyl-4-(4-fluorophenyl)-1H-imidazol-5-yl)furan-2-carboxamide]
431 nM | 191 nM | 191 nM | O=C(Nc1ccc(F)c(F)c1)c1ccc(-c2c(-c3ccc(F)cc3)ncn2C2CCCCC2)o1 [Compound 75, 5-(1-cyclohexyl-4-(4-fluorophenyl)-1H-imidazol-5-yl)-N-(3,4-difluorophenyl)furan-2-carboxamide]
547 nM |  | 480 nM | O=C(Nc1ccc(-c2c(-c3ccc(F)cc3)ncn2C2CCCC2)o1)c1ccccc1F [Compound 95, N-(5-(1-cyclopentyl-4-(4-fluorophenyl)-1H-imidazol-5-yl)furan-2-yl)-2-fluorobenzamide]
< 10 nM |  | 4.21 nM | COc1cnccc1NC(=O)c1ccc(-c2c(-c3ccc(F)cc3)ncn2C2CCOC2)o1 (stereo not shown) [Compound A-38, 5-(4-(4-fluorophenyl)-1-(tetrahydrofuran-3-yl)-1H-imidazol-5-yl)-N-(3-methoxypyridin-4-yl)furan-2-carboxamide]
288 nM | 90 nM | 90 nM | Cc1ccc(NC(=O)c2ccc(-c3c(-c4ccc(F)cc4)ncn3C3CCCCC3)o2)cc1C [Compound 69, 5-(1-cyclohexyl-4-(4-fluorophenyl)-1H-imidazol-5-yl)-N-(3,4-dimethylphenyl)furan-2-carboxamide]
